Reference: patent US4952592A, “1,4-dihydro 2,6-dimethyl 4-(2,3-methylenedioxyphenyl) 3-alkoxy carbonyl 5-[2-(substituted amino)ethoxy]carbonyl pyridine” (Instituto de Investigacion Y Desarrollo Quimicobiologico …, priority 1987, dated 1990)
One block for each compound: values may come before it.

Assays:
[1] = test system: rat aorta; assay: Inhibitory effects with respect to contractions of the rat aorta induced by 80 mM KCl; assay type: cell-based, WISTAR rats; conditions: isolated rat aorta
Method: The compounds of the present invention were tested for their calcium-inhibitory properties by standard methods applicable "in vitro".
Inhibitory effects with respect to contractions of the rat aorta induced by 80 mM KCl.
The aorta of WISTAR rats (220-250 g), sacrificed by decapitation, are removed and placed in a 20-ml organ bath at a temperature of 34° C., containing a KREBS solution composed as follows (in mmol per liter): NaCl, 137; KCl, 2.7; MgCl2.6H2 O, 1.04; CaCl2.2H2 O, 0.8; Na2 HPO4.H2 O, 0.42; NaHCO3, 11.9; glucose, 5. This solution is oxygenated with a mixture of 95% of O2 and 5% of CO2 (Furchgott and Bhadakron, 1956).
After a 45-minute stabilization period under a tension of 2 g, the maximal contractions of the artery are induced by adding KCl to the bath until a final concentration of 80 mmol/liter is attained. After the contractions have stabilized, the compounds of the invention, or OXODIPINE as control substance, are added, leaving a period of at least 10 minutes for stabilizing the relaxation.
The compounds of the present invention are dissolved in ethanol to give concentrated solutions containing approximately 1 mg/ml, from which the dilutions used above, from 10^-13 to 10^-7 M, are obtained by adding saline solution. The 50% inhibitory concentrations (IC50) are determined by analysis of the straight regression line.

[2] = test system: coronary vessels; assay: Vascular activity in anaesthetized dogs: regional blood flows and haemodynamics with coronary artery occlusion; assay type: in vivo; conditions: i.v.
Method: The beneficial effects on the oxygen supply/consumption balance may be accompanied by a modification of the blood distribution within the wall, which will be better irrigated, and by an increase in the blood flow in the collateral vessels during an acute occlusion of the coronary artery. The effects of the compound of Example 11, at doses of 10 and less than 10 μg/kg i.v., were explored in anaesthetized dogs in order to determine: the regional (endocardium, epicardium) myocardial blood flows in the ischaemic and non-ischaemic zones, the ratio between the endo- and epicardial flows and the ratio of the flows in the ischaemic/nonischaemic zone, the regional blood flows in other areas (spleen, pancreas, kidney, liver, stomach, intestines, muscle, skin) in order to define the selectivity of action of the compound. The studies were carried out on 6 adult dogs, according to the technique of […] and […]. Pharmacol. 1985 - 16 - 59 - 74 and J. Pharmacol. Exp. Ther. 1982, 221, 740-747). In addition, the haemodynamic parameters (heart rate, arterial blood pressure, left ventricular pressure, cardiac flow, total peripheral resistance, systolic ejection volume, cardiac work, contractility index) were monitored at regular times, before and after 3 successive short periods (12 minutes) of total occlusion of the coronary artery, the injection of radioactive microspheres enabling the regional flows to be evaluated. After the first period of ischaemia, the parameters were allowed to return to normal before the test compound was injected, the second occlusion was then performed and this procedure was repeated, the reversibility of the parameters being complete approximately 45 minutes after each occlusion. The test compound was administered in aqueous-alcoholic solution (0.1 mg/ml) on the basis of 0.1 ml/kg i.v.

[3] = in vivo; conditions: mouse, ip, mice, i.p., mortality in 7 days, read-out: intraperitoneal LD50
Method: The acute toxicity of a few compounds of the invention was determined in mice according to the method of […] and WILCOXON. Groups of 5 mice weighing 20-25 g were treated with increasing i.p. doses of the test compounds. The mortality was recorded in the 7 days following the treatment, and the LD50 calculated on this basis.

[4] = test system: conscious renal hypertensive rats; assay: antihypertensive activity on conscious renal hypertensive rats (systolic blood pressure, tail sleeve); assay type: in vivo, rat; conditions: i.p.; for decrease of the original high pressure: 1 mg/kg
Method: (2)1- antihypertensive activity:
A few compounds according to the invention were tested for their antihypertensive activity on conscious renal hypertensive rats. The systolic blood pressure was measured on the tail of unanaesthetized rats by means of an inflatable sleeve and an L.H.5 000 digital pressure gauge (Letica Instruments, Barcelona, Spain). The measurements were carried out before the i.p. administration of the test substance, and then 30 minutes, 1, 2, 4 and 5 hours after administration. The animals were maintained in preheated plastic cylinders during the measurements. Rats having a blood pressure of less than 160 mmHg were eliminated from the experiment.
Each compound was administered in 5% strength suspension (CMC) by i.p. injection.

[5] = 3 mg/kg/min and above, in words; cited from earlier work

IC50 [1]: 2.75 nM
Structure (SMILES): COC(=O)C1=C(C)NC(C)=C(C(=O)OCCN(C)Cc2ccc(F)cc2)C1c1cccc2c1OCO2 (centres unmarked) [Example 7, 3-Methyl 5-{2-[N-methyl-N-(4-fluorobenzyl)amino]ethyl}1,4-dihydro-2,6-dimethyl-4-(2,3-methylenedioxyphenyl)-3,5-pyridinedicarboxylate]

IC50 [1]: 52.8 nM
Structure (SMILES): COC(=O)C1=C(C)NC(C)=C(C(=O)OCCN(C=O)Cc2ccccc2)C1c1cccc2c1OCO2 (centres unmarked) [Example 3, 3-Methyl 5-[2-(N-formyl-N-benzylamino)ethyl]1,4-dihydro-2,6-dimethyl-4-(2,3-methylenedioxyphenyl)-3,5-pyridinedicarboxylate]

IC50 [1]: 81.1 nM
Structure (SMILES): COC(=O)C1=C(C)NC(C)=C(C(=O)OCCN(C)Cc2ccccn2)C1c1cccc2c1OCO2 (centres unmarked) [Example 4, 3 -Methyl 5-{2-[N-methyl-N-(2-picolyl)amino]ethyl}1,4-dihydro-2,6-dimethyl-4-(2,3-methylenedioxyphenyl)-3,5-pyridinedicarboxylate]

IC50 [1]: 13 nM
Structure (SMILES): COC(=O)C1=C(C)NC(C)=C(C(=O)OCCN(C)Cc2cccs2)C1c1cccc2c1OCO2 (centres unmarked) [Example 9, 3-Methyl 5-{2-[N-methyl-N-(2-thienylmethyl)amino]ethyl}1,4-dihydro-2,6-dimethyl-4-(2,3-methylenedioxyphenyl)-3,5-pyridinedicarboxylate]

IC50 [1]: 22.5 nM
Structure (SMILES): CC1=C(C(=O)OCCN(C)Cc2cccs2)C(c2cccc3c2OCO3)C(C(=O)OC(C)C)=C(C)N1 (centres unmarked) [Example 12, 3-Isopropyl 5-{2-[N-methyl-N-(2-thienylmethyl)amino]ethyl}1,4-dihydro-2,6-dimethyl-4-(2,3-methylenedioxyphenyl)-3,5-pyridinedicarboxylate]

IC50 [1]: 0.904 nM
Structure (SMILES): CCOC(=O)C1=C(C)NC(C)=C(C(=O)OCCN(C)Cc2cccs2)C1c1cccc2c1OCO2 (centres unmarked) [Example 10, 3-Ethyl 5-{2-[N-methyl-N-(2-thienylmethyl)amino]ethyl}1,4-dihydro-2,6-dimethyl-4-(2,3-methylenedioxyphenyl)-3,5-pyridinedicarboxylate]

Structure (SMILES): CC1=C(C(=O)OCCN(C)Cc2ccc(F)cc2)C(c2cccc3c2OCO3)C(C(=O)OC(C)C)=C(C)N1 (centres unmarked) [Example 11, 3-Isopropyl 5-{2-[N-methyl-N-(4-fluorobenzyl)amino]ethyl}1,4-dihydro-2,6-dimethyl-4-(2,3-methylenedioxyphenyl)3,5-pyridinedicarboxylate]
arterial blood pressure change [2]: -13% | cardiac flow change [2]: +9% | heart rate change [2]: -9% | systolic ejection volume change [2]: +18% | total peripheral resistance reduction [2]: 20% | epicardial flow increase ([2]; ischaemic zones): ≥ 20% | endo/epi ratio change ([2]; ischaemic zones, p<0.05): -21% | transmural flow increase ([2]; non-ischaemic zones): 42% | endo/epi ratio change ([2]; non-ischaemic zones, p<0.001): -22% | epicardial flow change ([2]; non-ischaemic zones, p<0.001): +62% | coronary vascular resistance change ([2]; non-ischaemic zones, p<0.05): -38% | endocardial flow change ([2]; non-ischaemic zones, p<0.05): +26% | LD50 at 168 h [3]: 30 to 40 mg/kg | decrease of the original high pressure [4]: 33% | duration of antihypertensive effects [4]: more than 6 hours

Structure (SMILES): CCOC(=O)C1=C(C)NC(C)=C(C(=O)OCCN(C)Cc2ccc(F)cc2)C1c1cccc2c1OCO2 (centres unmarked) [Example 8, 3-Ethyl 5-{2-[N-methyl-N-(4-fluorobenzyl)amino]ethyl}1,4-dihydro-2,6-dimethyl-4-(2,3-methylenedioxyphenyl)-3,5-pyridinedicarboxylate]
IC50 [1]: 0.04 nM | LD50 at 168 h [3]: 70 to 80 mg/kg | decrease of the original high pressure [4]: 23%

IC50 [1]: 558 nM
Structure (SMILES): COC(=O)C1=C(C)NC(C)=C(C(=O)OCCN(C)C=O)C1c1cccc2c1OCO2 (centres unmarked) [Example 2, 3-Methyl 5-[2-(N-formyl-N-methylamino)ethyl]1,4-dihydro-2,6-dimethyl-4-(2,3-methylenedioxyphenyl)-3,5-pyridinedicarboxylate]

IC50 [1]: 245 nM
Structure (SMILES): COC(=O)C1=C(C)NC(C)=C(C(=O)OCCN(C)Cc2ccncc2)C1c1cccc2c1OCO2 (centres unmarked) [Example 5, 3-Methyl 5{2-[N-methyl-N-(4-picolyl)amino]ethyl}1,4-dihydro-2,6-dimethyl-4-(2,3-methylenedioxyphenyl)-3,5-pyridinedicarboxylate]

IC50 [1]: 3.1 nM
Structure (SMILES): CCOC(=O)C1=C(C)NC(C)=C(C(=O)OC)C1c1cccc2c1OCO2 (centres unmarked) [OXODIPINE, reference compound]

IC50 [1]: 9 nM
Structure (SMILES): COC(=O)C1=C(C)NC(C)=C(C(=O)OCCN(C)Cc2cccnc2)C1c1cccc2c1OCO2 (centres unmarked) [Example 6, 3-Methyl 5-{2-[N-methyl-N-(3-picolyl)amino]ethyl}1,4-dihydro-2,6-dimethyl-4-(2,3-methylenedioxyphenyl)-3,5-pyridinedicarboxylate]

Structure (SMILES): COC(=O)C1=C(C)NC(C)=C(C(=O)OC)C1c1ccccc1[N+](=O)[O-] [NIFEDIPINE]
heart rate [5]: increased | myocardial regional flows [5]: decreases the myocardial regional flows | perfusion pressure [5]: strongly reduced

IC50 [1]: 1920 nM
Structure (SMILES): CNCCOC(=O)C1=C(C)NC(C)=C(C(=O)OC)C1c1cccc2c1OCO2 (centres unmarked) [Example 1, 3-Methyl 5-[2-(N-methylamino)ethyl]1,4-dihydro-2,6-dimethyl-4-(2,3-methylenedioxyphenyl)-3,5-pyridinedicarboxylate]
